Measurements published in ChEMBL document CHEMBL1201862, “PubChem BioAssay data set” (2004).
The source made the active and inactive calls.

Tests used:
Interleukin-8 [1] = biological target: T1, Interleukin-8 (Homo sapiens, UniProt P10145); assay: Dose Response confirmation of uHTS small molecule hits for cystic fibrosis induced NFkb Inhibitors in a TNFa-induced IL8 counterscreen.; type: functional; settings: read-out: IC50_Mean
T1 sequence (P10145 whole entry): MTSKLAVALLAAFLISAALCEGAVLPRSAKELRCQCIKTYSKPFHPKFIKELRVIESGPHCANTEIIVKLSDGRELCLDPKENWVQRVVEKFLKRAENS

Interleukin-8 [2] = biological target: T1, Interleukin-8; assay: Dose Response confirmation of uHTS small molecule hits for cystic fibrosis induced NFkb Inhibitors in a PAF-induced IL8 counterscreen.; type: functional; settings: read-out: IC50_Mean
[3] = inhibition of ARNT PAS-B/TACC3 complex formation – biochemical, AlphaScreen, cherry-picked samples, confirmation (AID 651703); type: functional, Homo sapiens;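 further: His-tagged ARNT PAS-B domain paired with GST-TACC3 E629A dimer coactivator fragment; potency of inhibitors that break up the complex and lower AlphaScreen signal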
[4] = biological target: Ras and Rab interactor 1/Tyrosine-protein kinase ABL1 (Homo sapiens, UniProt P00519+Q13671); type: functional;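 further: biochemical TR-FRET dose-response test measuring inhibition of binding between Rin1 and Abl proteins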
Steroidogenic factor 1 = Steroidogenic factor 1 (Homo sapiens, UniProt Q13285); assay: Counterscreen for inverse agonists of the liver receptor homolog-1 (LRH-1; NR5A2): Luminescence-based cell-based high throughput dose response assay to identify inverse agonists of the Steroidogenic Factor 1 Nuclear Receptor (SF1; NR5A1).; type: functional
[5] = biological target: Nuclear receptor subfamily 5 group A member 2 (Homo sapiens, UniProt O00482); type: functional, cell-based;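 further: HEK293T cells transfected with LRH-1 and a StAR promoter luciferase reporter; potency for inhibitors that lower LRH-1 driven reporter light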
[6] = nonselective StAR promoter luciferase inhibitors – cell-based, luminescence, luciferase reporter, counter-screen for LRH-1 inverse agonist project, dose response (AID 651969); type: functional
[7] = DRD fibroblast viability loss – cell-based, non-viral oncogenic, luminescence, dose response (AID 1934); type: functional; settings: Homo sapiens
[8] = biological target: T2, Oxysterols receptor LXR-beta (Homo sapiens, UniProt P55055); type: functional, cell-based;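 further: Cell-based luminescence dose-response assay of agonist activity at LXR, run as a confirmatory counterscreen to a daf-12 agonist screen; HEK293 cells with Gal4-LXR fusion and GAL4-driven luciferase reporter; agonist potency from rising luciferase signal of a Gal4-LXR reporter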
T2 sequence (P55055 whole entry): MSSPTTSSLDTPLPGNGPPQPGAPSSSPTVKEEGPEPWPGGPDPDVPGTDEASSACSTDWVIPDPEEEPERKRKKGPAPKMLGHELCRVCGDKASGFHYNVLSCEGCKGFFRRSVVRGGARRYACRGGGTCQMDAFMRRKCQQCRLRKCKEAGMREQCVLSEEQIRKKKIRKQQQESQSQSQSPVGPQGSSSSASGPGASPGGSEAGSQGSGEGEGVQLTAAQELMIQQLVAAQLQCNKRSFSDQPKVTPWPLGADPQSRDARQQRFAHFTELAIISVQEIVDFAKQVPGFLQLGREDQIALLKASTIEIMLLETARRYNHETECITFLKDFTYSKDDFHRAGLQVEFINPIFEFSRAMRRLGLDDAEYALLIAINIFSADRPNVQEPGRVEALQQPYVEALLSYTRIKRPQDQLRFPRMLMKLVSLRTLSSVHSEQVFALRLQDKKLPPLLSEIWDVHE

BJ [9] = assay: BJ-TERT-LT-ST fibroblast viability loss – cell-based, RAS-independent, luminescence, dose response (AID 1935); type: functional; settings: Homo sapiens;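 further: BJ fibroblasts immortalized with TERT plus LT and ST oncogenes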
BJ [10] = assay: cells; type: functional, cell-based; settings: Homo sapiens
BJ [11] = assay: BJ-TERT fibroblast viability loss – cell-based, RAS-independent, luminescence, dose response (AID 1933); type: functional; settings: Homo sapiens
BJ [12] = assay: growth inhibition of engineered Ras-driven BJ cells – cell-based, alamar blue fluorescence, cherrypicked samples, dose response (AID 2631); type: functional; settings: Homo sapiens;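 further: confirmatory dose-response assay in RAS-dependent BJ fibroblasts engineered with TERT, LT and ST, with cytotoxicity read by fluorescence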
Streptococcus = assay: GAS UMAA2166 growth inhibition – luminescence, BacTiterGlo, counter-screen for streptokinase expression inhibitor project, dose response (AID 1915); type: functional, organism-based;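 further: potency for reduction of bacterial viability or growth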
[13] = test system: Streptococcus sp. 'group A'; assay: Streptococcus pyogenes SK(-)GAS viability under kanamycin – luminescence, BacTiterGlo, confirmation, counter-screen for streptokinase expression inhibitor project, dose response (AID 1900); type: functional, organism-based
Streptokinase A = biological target: T3, Streptokinase A (Streptococcus pyogenes serotype M1, UniProt P10520); assay: viability-normalized secreted streptokinase activity reduction – plasminogen activation absorbance, OD405, dose response (AID 1914); type: functional, Streptococcus pyogenes M1 GAS;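 further: secreted streptokinase activity via plasminogen activation per viability signal from cell pellet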
T3 sequence (P10520 whole entry): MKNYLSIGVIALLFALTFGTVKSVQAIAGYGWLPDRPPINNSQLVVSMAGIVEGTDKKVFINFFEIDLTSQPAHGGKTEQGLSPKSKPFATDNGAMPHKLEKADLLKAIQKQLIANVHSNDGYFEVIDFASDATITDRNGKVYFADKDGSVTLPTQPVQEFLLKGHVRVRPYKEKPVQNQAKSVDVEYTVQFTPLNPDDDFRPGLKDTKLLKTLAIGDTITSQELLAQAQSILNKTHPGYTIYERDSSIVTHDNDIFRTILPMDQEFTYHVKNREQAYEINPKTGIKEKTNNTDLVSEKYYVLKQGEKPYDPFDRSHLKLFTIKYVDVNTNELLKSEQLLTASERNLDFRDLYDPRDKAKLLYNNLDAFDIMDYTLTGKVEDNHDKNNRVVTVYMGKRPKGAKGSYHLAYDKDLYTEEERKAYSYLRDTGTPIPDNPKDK

Chain of Nuclear receptor subfamily 5 group A member 2 (O00482 whole entry): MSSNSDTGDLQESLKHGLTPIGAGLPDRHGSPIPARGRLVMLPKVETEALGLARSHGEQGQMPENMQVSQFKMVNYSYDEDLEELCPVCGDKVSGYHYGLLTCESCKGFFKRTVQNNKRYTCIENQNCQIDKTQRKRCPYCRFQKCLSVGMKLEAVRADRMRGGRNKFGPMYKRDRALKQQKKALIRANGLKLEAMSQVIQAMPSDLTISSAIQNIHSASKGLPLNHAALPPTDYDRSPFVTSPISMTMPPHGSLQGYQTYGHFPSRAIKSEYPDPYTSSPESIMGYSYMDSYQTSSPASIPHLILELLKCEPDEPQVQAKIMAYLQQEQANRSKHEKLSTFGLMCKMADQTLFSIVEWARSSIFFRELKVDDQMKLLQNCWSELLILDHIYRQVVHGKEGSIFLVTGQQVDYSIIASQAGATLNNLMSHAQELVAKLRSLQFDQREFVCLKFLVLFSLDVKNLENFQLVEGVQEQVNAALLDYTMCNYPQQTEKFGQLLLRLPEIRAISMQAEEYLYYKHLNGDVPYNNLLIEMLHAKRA
Chain of Steroidogenic factor 1 (Q13285 whole entry): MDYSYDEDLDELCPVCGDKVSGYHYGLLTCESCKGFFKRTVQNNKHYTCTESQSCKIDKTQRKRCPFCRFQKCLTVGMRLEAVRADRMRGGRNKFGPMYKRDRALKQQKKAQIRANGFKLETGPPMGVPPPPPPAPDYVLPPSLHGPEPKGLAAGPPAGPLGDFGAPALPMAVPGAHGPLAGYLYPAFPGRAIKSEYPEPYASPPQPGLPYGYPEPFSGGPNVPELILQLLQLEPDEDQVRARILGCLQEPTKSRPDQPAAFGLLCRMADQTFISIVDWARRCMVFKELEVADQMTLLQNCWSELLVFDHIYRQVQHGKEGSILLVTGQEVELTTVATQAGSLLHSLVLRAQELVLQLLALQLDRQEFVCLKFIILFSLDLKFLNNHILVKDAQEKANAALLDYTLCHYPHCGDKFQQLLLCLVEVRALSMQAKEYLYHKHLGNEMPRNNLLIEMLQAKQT
Chain of Ras and Rab interactor 1/Tyrosine-protein kinase ABL1 (P00519 whole entry): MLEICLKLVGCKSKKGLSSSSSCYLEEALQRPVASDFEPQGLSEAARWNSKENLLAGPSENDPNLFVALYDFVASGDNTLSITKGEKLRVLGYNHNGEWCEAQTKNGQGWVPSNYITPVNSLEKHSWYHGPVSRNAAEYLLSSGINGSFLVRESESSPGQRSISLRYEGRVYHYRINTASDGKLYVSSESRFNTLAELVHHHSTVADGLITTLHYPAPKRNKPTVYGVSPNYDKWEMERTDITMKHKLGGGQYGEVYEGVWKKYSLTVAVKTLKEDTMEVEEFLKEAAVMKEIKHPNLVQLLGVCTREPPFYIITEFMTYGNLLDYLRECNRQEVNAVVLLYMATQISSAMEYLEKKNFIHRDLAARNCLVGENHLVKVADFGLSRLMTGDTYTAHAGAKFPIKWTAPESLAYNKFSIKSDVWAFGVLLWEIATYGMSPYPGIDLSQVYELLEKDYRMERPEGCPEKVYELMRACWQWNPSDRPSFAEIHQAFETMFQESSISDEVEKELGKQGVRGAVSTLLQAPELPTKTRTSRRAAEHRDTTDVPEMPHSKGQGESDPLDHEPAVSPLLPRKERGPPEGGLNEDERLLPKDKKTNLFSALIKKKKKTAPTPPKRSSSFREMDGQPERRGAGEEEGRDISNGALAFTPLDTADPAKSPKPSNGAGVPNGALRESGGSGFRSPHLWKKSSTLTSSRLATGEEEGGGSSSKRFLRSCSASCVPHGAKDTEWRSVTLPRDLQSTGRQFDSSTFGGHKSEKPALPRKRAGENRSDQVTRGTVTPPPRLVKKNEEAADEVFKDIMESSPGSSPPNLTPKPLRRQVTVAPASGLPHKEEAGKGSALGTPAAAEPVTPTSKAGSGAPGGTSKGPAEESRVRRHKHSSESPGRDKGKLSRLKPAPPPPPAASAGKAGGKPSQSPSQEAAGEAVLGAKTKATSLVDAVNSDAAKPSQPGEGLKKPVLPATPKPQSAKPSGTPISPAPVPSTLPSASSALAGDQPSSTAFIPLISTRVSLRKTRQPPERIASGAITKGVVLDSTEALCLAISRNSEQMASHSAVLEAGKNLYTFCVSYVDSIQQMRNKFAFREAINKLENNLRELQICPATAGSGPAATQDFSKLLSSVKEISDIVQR
Chain of Ras and Rab interactor 1/Tyrosine-protein kinase ABL1 (Q13671 whole entry): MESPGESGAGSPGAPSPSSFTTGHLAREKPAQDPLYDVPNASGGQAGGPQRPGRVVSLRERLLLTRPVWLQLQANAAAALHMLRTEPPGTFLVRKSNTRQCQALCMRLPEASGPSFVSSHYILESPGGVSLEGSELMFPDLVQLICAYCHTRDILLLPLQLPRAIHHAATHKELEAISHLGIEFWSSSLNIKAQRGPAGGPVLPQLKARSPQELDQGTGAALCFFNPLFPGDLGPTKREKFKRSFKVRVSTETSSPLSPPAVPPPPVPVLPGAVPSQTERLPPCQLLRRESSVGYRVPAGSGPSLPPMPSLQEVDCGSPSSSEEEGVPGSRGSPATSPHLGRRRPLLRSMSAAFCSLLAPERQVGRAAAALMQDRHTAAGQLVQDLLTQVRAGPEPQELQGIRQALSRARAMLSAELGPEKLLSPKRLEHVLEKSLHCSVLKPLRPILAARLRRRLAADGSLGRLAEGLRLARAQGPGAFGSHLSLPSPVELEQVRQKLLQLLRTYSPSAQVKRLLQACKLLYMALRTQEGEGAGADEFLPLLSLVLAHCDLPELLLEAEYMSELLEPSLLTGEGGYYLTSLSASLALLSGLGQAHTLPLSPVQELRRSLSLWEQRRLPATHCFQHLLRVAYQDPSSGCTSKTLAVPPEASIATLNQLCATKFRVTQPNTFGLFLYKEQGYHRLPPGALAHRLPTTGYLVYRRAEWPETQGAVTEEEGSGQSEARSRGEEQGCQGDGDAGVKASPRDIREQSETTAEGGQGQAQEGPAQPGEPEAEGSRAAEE

CS(=O)(=O)c1ccc2nc(NC(=O)CCS(=O)(=O)c3ccccc3)sc2c1
IC50 (Interleukin-8 [1]): 1.5 µM (active)
IC50 (Interleukin-8 [2]): 1.36 µM (active)

CC1=CC(C)(C)N(C(=O)C(C)N2C(=O)c3ccccc3C2=O)c2ccc(C)cc21 (configuration not stated)
AC50 [3]: 119 µM (active)

CN1CCN(C(=O)CSc2nc(-c3ccncc3)ccc2C#N)CC1
IC50 [4]: 39 µM (inactive)

NS(=O)(=O)c1ccc(CCNC(=O)COc2ccc3c4c(c(=O)oc3c2)CCC4)cc1
IC50 (Steroidogenic factor 1): 35.9 µM (inactive)
IC50 [5]: 35.9 µM (inactive)
IC50 [6]: 35.9 µM (inactive)

COc1cccc(NC(=O)n2ncc3c(C)cccc32)c1
EC50 [7]: 6.62 µM (active)
EC50 [8]: > 67.5 µM (inactive)
EC50 (BJ [9]): 18.2 µM (active)
EC50 (cells): > 67.5 µM (inactive)
EC50 (BJ [10]): 8.05 µM (active)
EC50 (BJ [11]): 11.5 µM (active)
EC50 (BJ [12]): > 133 µM (inactive)

COc1ccc(-c2c[nH]nc2-c2ccc(OC)cc2)cc1
EC50 (Streptococcus): 8.74 µM (active)
EC50 [13]: 3.33 µM (active)
EC50 (Streptokinase A): > 150 µM (not active)
IC50 (Interleukin-8 [1]): 3.57 µM (active)
IC50 (Interleukin-8 [2]): 5.39 µM (active)

CCC(C)(C)n1nnnc1CN1CCC(O)(c2cccc(C(F)(F)F)c2)CC1
IC50 (Steroidogenic factor 1): 12.4 µM (inactive)
IC50 [5]: 9.63 µM (active)
IC50 [6]: 35.9 µM (inactive)
